Measured values published in PubChem BioAssay (NCI).
Where “and” joins values, the source holds several entries; their conditions need not be identical. Identical values can stand only once.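 Cells were grown in 96-well plates and exposed to each compound for 48 hours at five concentrations; endpoints were interpolated linearly between bracketing concentrations, or set to the highest concentration if not reached. GI50: concentration for 50% inhibition of growth. TGI: total growth inhibition.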

Key:
Test in all cases: NCI-60 cell line screen, 48 h
SF-539 CNS = test system: SF-539 CNS
SK-OV-3 ovarian = test system: SK-OV-3 ovarian
HOP-92 NSCLC = test system: HOP-92 NSCLC
MDA-MB-231 breast = test system: MDA-MB-231 breast
U251 CNS = test system: U251 CNS
RXF 393 renal = test system: RXF 393 renal
A498 renal = test system: A498 renal
BT-549 breast = test system: BT-549 breast
NCI-H522 lung = test system: NCI-H522 lung
DU-145 prostate = test system: DU-145 prostate

| Structure (SMILES) | GI50 (SF-539 CNS) | TGI (SF-539 CNS) | GI50 (SK-OV-3 ovarian) | TGI (SK-OV-3 ovarian) | GI50 (HOP-92 NSCLC) | TGI (HOP-92 NSCLC) | GI50 (MDA-MB-231 breast) | TGI (MDA-MB-231 breast) | GI50 (U251 CNS) | TGI (U251 CNS) | GI50 (RXF 393 renal) | TGI (RXF 393 renal) | GI50 (A498 renal) | TGI (A498 renal) | GI50 (BT-549 breast) | TGI (BT-549 breast) | GI50 (NCI-H522 lung) | TGI (NCI-H522 lung) | GI50 (DU-145 prostate) | TGI (DU-145 prostate) |
| --- | --- | --- | --- | --- | --- | --- | --- | --- | --- | --- | --- | --- | --- | --- | --- | --- | --- | --- | --- | --- |
| O=[N+]([O-])c1ccccc1/C=N\NC(=S)N/N=C/c1ccccc1[N+](=O)[O-] | 4.17 µM | 58.6 µM | 6.07 µM | > 100 µM | 26.2 µM | > 100 µM | 37.8 µM | > 100 µM | 4.9 µM | > 100 µM | 11.6 µM | > 100 µM | 2.49 µM | 28.4 µM | 39.6 µM | > 100 µM | 2.15 µM | 21.7 µM | 5.34 µM | 38.2 µM |
| CN(C)S(=O)(=O)c1cccc(C(=O)Nc2nc(-c3ccc(F)c(F)c3)cs2)c1 | 15.3 µM | 58 µM | 35.7 µM | > 100 µM | 9.41 µM | > 74.3 µM | 20.6 µM | > 100 µM | 11.5 µM | > 74 µM | 12.4 µM | > 81.5 µM | 16.9 µM | > 100 µM | 3.88 µM | > 27.4 µM | 5.71 µM | > 100 µM | 25.9 µM | > 100 µM |
| O=NNc1ccc(-c2ccccc2)cn1 |  | 80.8 µM |  | > 78.8 µM |  | 8.45 µM |  | > 78.1 µM |  | > 62.5 µM |  | 12.7 µM |  | 32.7 µM |  | > 100 µM |  | 49.3 µM |  | 9.78 µM |
| CN1CCN(C2=C(Cl)C(=O)c3ccccc3C2=O)CC1 | 2.08 µM | 4.47 µM | 9.11 µM | 22.4 µM | 1.52 µM | 3.07 µM | 1.84 µM | 3.99 µM | 1.72 µM | 3.28 µM | 1.59 µM | 2.95 µM | 0.0132 µM | 4.25 µM | 1.97 µM | 4.75 µM | 0.38 µM | 1.64 µM | 1.74 µM | 3.11 µM |
| O=C(O)CCCN1C(=O)/C(=C/C(Cl)=C/c2ccccc2)SC1=S | 1.98 µM | 4.85 µM | 6.24 µM | 19 µM | 3.17 µM | 9.78 µM | 3.17 µM | 10.7 µM | 1.8 µM | 4.63 µM | 1.36 µM | 2.78 µM | 1.96 µM | 3.57 µM | 1.91 µM | 4.8 µM | 2.21 µM | 6.62 µM | 1.79 µM | 4.39 µM |
| NC(CSC(c1ccccc1)(c1ccccc1)c1ccccc1)C(=O)O (configuration not stated) | 0.874 µM and 0.459 µM | 10.6 µM and 3.01 µM and 3.26 µM | 0.425 µM | 14.8 µM and > 100 µM | 2.17 µM and 10.1 µM |  | 1.08 µM | 4.65 µM and 6.45 µM | 1.11 µM and 0.485 µM | 16.9 µM and 32.4 µM and 43.4 µM | 0.708 µM and 0.454 µM | 22.8 µM and > 100 µM | 0.493 µM | 51.9 µM and 43 µM | 4.88 µM | 57.8 µM and > 100 µM | 0.524 µM and 0.413 µM | 2.2 µM and 7.13 µM and 4.28 µM | 6.02 µM and 4.1 µM | 85.5 µM and > 100 µM |
| O=C1c2ccccc2C(=O)c2c1ccc1conc21 |  | 3.87 µM |  | 13.3 µM |  | 3.04 µM |  | 1.42 µM |  | 3.14 µM |  | 5.64 µM |  | 24.3 µM |  | 3.68 µM |  | 3.44 µM |  | 7.07 µM |
| COc1ccc(-n2nc(C)c3c(Nc4ccc(NC(=O)Nc5cccc(C(F)(F)F)c5)cc4)ncnc32)cc1 | 1.28 µM | 2.66 µM | 2.13 µM | 5.3 µM | 1.59 µM | 3.31 µM | 1.46 µM | 3.14 µM | 1.08 µM | 2.35 µM | 0.846 µM | 2.34 µM | 1.99 µM | 4.45 µM | 1.97 µM | 5.32 µM | 1.6 µM | 3.8 µM | 1.97 µM | 4.54 µM |
| COC(=O)CNC(=O)C(=O)c1c(O)c(O)c(C(C)C)c2cc(C)c(-c3c(C)cc4c(C(C)C)c(O)c(O)c(C(=O)C(=O)NCC(=O)OC)c4c3O)c(O)c12 | 1.77 µM | 7.84 µM | 1.79 µM | 6.89 µM | 1.38 µM | 3.81 µM | 1.99 µM | 9.64 µM | 1.53 µM | 5.85 µM | 1.85 µM | 8.39 µM | 2.6 µM | 12.2 µM | 2.65 µM | 11.8 µM | 1.32 µM | 3.43 µM | 1.99 µM | 7.91 µM |
| O=C(Nc1cc(Cl)c(I)c(Cl)c1)C(F)(F)F |  |  |  | 58.9 µM |  | 46.9 µM |  | > 100 µM |  | > 100 µM |  | 34.5 µM |  | 47.8 µM |  | 63 µM |  | 42.2 µM |  | > 100 µM |
| COc1ccc(C2=Nn3c(nnc3-c3ccc(F)c(Cl)c3)SC2)cc1 | > 100 µM | > 100 µM | > 100 µM | > 100 µM | 18.1 µM | 56.7 µM | 29.5 µM | > 100 µM | > 100 µM | > 100 µM | > 100 µM | > 100 µM | > 100 µM | > 100 µM | > 100 µM | > 100 µM | > 100 µM | > 100 µM | > 100 µM | > 100 µM |
| O=C1OC(c2ccc([N+](=O)[O-])cc2)=N/C1=C\c1ccc(Cl)cc1 |  | > 100 µM |  | > 100 µM |  | > 100 µM |  | > 100 µM |  | > 100 µM |  | > 100 µM |  | > 100 µM |  | > 100 µM |  | > 100 µM |  | > 100 µM |
| O=C(O)/C=C/c1c2ccc(=O)c(O)c-2oc2c(O)c(O)ccc12 |  |  |  | > 100 µM |  | > 100 µM |  | 66.5 µM |  | 35.3 µM |  | > 100 µM |  | > 100 µM |  | > 100 µM |  | > 100 µM |  | > 100 µM |
| CC(=O)CC[N+](C)(C)C |  | 82.9 µM |  | 51.9 µM |  | 22.7 µM |  | 38.6 µM |  | 59.9 µM |  | 20.1 µM |  | 91.9 µM |  | 62.6 µM |  | 1.96 µM |  | > 79 µM |
| CCN(Cc1cc(Cl)cc(C)c1O)Cc1c(O)ccc2ccccc12 |  | 30 µM |  | 29.8 µM |  | 26.2 µM |  | 35.4 µM |  | 31.7 µM |  | 31.2 µM |  | 33.1 µM |  | 27.4 µM |  | 31.8 µM |  | 34.7 µM |
